Patent US20240216357A1 (SICHUAN HUIYU PHARMACEUTICAL CO., LTD., priority 2021, published 2024)
Counter-ions that a name gives are not always drawn. Like-named read-outs stand apart in the source and are kept apart here.

Experiments:
[1] = target: voltage-gated potassium ion channel hERG (Homo sapiens (Human), UniProt Q12809); experiment: hERG inhibition test (manual patch-clamp)
LSD1 = LSD1 (Homo sapiens (Human), UniProt O60341); experiment: LSD1 enzyme activity detection (HTRF); type: biochemical; details: read-out: Inhibition of enzymatic activity of LSD1 IC50
NCI-H1417 cells = experiment: In vitro cell proliferation detection (CellTiter-Glo, 7 days); type: cell-based; details: Homo sapiens
Caco-2 permeability test = details: human, Caco-2
[2] = read-out: hERG IC50, manual patch-clamp
[3] = 168 h, NCI-H1417 cells, 7 days, CellTiter-Glo, read-out: NCI-H1417 proliferation inhibition IC50
For Cmax in this document: test concentration or dose not given here.

Sequence of voltage-gated potassium ion channel hERG (Q12809 whole entry): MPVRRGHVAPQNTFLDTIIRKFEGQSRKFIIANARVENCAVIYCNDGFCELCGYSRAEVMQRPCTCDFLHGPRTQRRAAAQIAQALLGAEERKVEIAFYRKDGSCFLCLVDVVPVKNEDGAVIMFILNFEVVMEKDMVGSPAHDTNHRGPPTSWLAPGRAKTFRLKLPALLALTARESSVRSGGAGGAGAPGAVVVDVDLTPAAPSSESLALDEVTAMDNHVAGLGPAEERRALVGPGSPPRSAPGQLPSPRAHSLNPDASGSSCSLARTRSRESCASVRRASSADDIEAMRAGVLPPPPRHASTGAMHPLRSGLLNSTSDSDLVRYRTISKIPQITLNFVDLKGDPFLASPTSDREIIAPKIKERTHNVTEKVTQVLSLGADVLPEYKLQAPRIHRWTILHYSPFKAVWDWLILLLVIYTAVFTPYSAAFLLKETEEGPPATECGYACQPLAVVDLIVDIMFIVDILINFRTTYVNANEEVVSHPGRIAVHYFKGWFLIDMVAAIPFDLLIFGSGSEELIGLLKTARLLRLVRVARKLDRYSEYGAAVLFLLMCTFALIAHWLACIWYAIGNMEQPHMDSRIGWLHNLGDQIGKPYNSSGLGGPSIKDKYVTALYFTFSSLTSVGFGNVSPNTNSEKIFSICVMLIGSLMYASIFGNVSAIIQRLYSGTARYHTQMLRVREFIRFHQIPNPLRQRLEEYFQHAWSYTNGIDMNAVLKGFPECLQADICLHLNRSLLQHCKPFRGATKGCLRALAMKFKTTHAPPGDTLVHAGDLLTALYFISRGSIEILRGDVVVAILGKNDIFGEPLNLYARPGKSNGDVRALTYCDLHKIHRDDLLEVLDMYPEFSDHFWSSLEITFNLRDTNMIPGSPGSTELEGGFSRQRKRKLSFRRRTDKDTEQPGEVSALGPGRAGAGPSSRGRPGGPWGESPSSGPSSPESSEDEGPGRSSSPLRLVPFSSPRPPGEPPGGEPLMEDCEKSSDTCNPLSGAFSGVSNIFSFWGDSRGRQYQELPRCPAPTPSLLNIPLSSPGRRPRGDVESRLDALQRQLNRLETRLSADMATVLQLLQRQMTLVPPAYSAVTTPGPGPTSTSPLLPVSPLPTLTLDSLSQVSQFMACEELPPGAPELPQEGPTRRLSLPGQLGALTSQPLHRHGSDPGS

Row | IC50 (LSD1; HTRF, H3K4me1 substrate) [nM] | IC50 (NCI-H1417 cells; [3]) [nM] | Structure (SMILES) | IC50 [1, 2] [nM] | further results
1 | 7.2 ± 2.3 | 9.36 | O=C(NC1CCOCC1)c1cc(CN[C@@H]2C[C@H]2c2ccc(F)cc2)nc(-c2ccc(-n3cccn3)cc2)n1 [Example 233] | 4470 | 
2 |  | 0.604 | COc1cc(N2CCC(N)CC2)nc(-c2ccc(C#N)c(F)c2)c1-c1ccc(Cl)c(O)c1 [Example 98, 4-(6-(4-aminopiperidin-1-yl)-3-(4-chloro-3-hydroxyphenyl)-4-methoxypyridin-2-yl)-2-fluorobenzonitrile hydrochloride] | 5850 | 
3 | 0.54 ± 0.32 | 1.04 | N#Cc1ccc(-c2nc(N3CCC(N)CC3)n3ccnc3c2-c2ccc(OC(F)(F)F)c(O)c2)cc1F [Example 133, 4-(5-(4-aminopiperidin-1-yl)-8-(3-hydroxy-4-(trifluoromethoxy)phenyl)imidazolo [1,2-c]pyrimidin-7-yl)-2-fluorobenzonitrile hydrochloride] | 7170 | 
4 | 3.67 ± 0.72 | 7.45 | Cc1noc2cc(-c3c(O)cc(N4CCC(N)CC4)nc3-c3ccc(C#N)c(F)c3)c(F)cc12 [Example 26, 4-(6-(4-aminopiperidin-1-yl)-3-(5-fluoro-3-methylbenzo[d]isoxazol-6-yl)-4-hydroxypyridin-2-yl)-2-fluorobenzonitrile] | > 30000 | 
5 | 0.07 ± 0.05 | 0.553 | N#Cc1ccc(-c2nc(N3CCC(N)CC3)n3ccnc3c2-c2ccc(F)c(O)c2)cc1F [Example 137, 4-(5-(4-aminopiperidin-1-yl)-8-(4-fluoro-3-hydroxyphenyl)imidazolo[1,2-c]pyrimidin-7-yl]-2-fluorobenzonitrile] | > 10000 | 
6 | 22.9 | 4.68 | CS(=O)(=O)N1CCN(C(=O)c2cc(CN[C@@H]3C[C@H]3c3ccc(F)cc3)nc(-c3ccc(-n4ccnn4)cc3)n2)CC1 [Example 228] | 7210 | 
7 | 3.15 ± 1.03 | 8.38 | COc1ccc(-c2c(-c3ccc(C#N)c(F)c3)nc(N3CCC(N)CC3)n3ccnc23)cn1 [Example 121, 4-(5-(4-aminopiperidin-1-yl)-8-(6-methoxypyridin-3-yl)imidazolo [1,2-c]pyrimidin-7-yl)-2-fluorobenzonitrile] | 6040 | 
8 | 6.1 ± 1.9 | 7.25 | CC(C)(O)Cc1ccc(-c2c(-c3ccc(C#N)c(F)c3)nc(N3CCC(N)CC3)n3ccnc23)cc1F [Example 134, 4-(5-(4-aminopiperidin-1-yl)-8-(3-fluoro-4-(2-hydroxy-2-methylpropyl)phenyl)imidazolo [1,2-c]pyrimidin-7-yl)-2-fluorobenzonitrile] | 18400 | 
9 | 0.08 ± 0.03 | 0.163 | COc1ccc(-c2c(-c3ccc(C#N)c(F)c3)nc(N3CCC(N)CC3)n3ccnc23)cc1O [Example 124, 4-(5-(4-aminopiperidin-1-yl)-8-3-hydroxy-4-(methoxyphenyl)imidazolo[1,2-c]pyrimidin-7-yl)-2-fluorobenzonitrile] | > 30000 | Papp A→B at 120 min (Caco-2 permeability test): 1.73 ×10⁻⁶ cm/s; Papp B→A at 120 min (Caco-2 permeability test): 24.7 ×10⁻⁶ cm/s; efflux ratio at 120 min (Caco-2 permeability test): 14.3
10 | 0.7 ± 0.02 | 1.76 | COc1ccc(-c2c(OC(C)C)cc(N3CCC(N)CC3)nc2-c2ccc(C#N)c(F)c2)cc1O [Example 104, 4-(6-(4-aminopiperidin-1-yl)-3-(3-hydroxy-4-methoxyphenyl)-4-isopropoxypyridin-2-yl)-2-fluor obenzonitrile] |  | IC50 [1]: 6700 nM
11 | 22.1 | 7.93 | COc1cc(F)c(-c2c(O)cc(N3CCC(N)CC3)nc2-c2ccc(C#N)c(F)c2)cc1F [Example 41, 4-(6-(4-aminopiperidin-1-yl)-3-(2,5-difluoro-4-methoxyphenyl)-4-hydroxypyridin-2-yl)-2-fluorobenzonitrile hydrochloride] | > 30000 | 
12 | 7.48 | 5.34 | COc1cc(N2CCC(N)CC2)nc(-c2ccc(C#N)c(F)c2)c1-c1cc2onc(C)c2cc1F [Example 90, 4-(6-(4-aminopiperidin-1-yl)-3-(5-fluoro-3-methylbenzo[d]isoxazol-6-yl)-4-methoxypyridin-2-yl)-2-fluorobenzonitrile] | 4620 | 
13 | 0.16 ± 0.11 | 0.467 | COc1cc(N2CCC(N)CC2)nc(-c2ccc(C#N)c(F)c2)c1-c1ccc(C)c(O)c1 [Example 95, 4-(6-(4-aminopiperidin-1-yl)-3-(3-hydroxy-4-methylphenyl)-4-methoxypyridin-2-yl)-2-fluorobenzonitrile hydrochloride] | 6920 | 
14 | 5.62 | 11.9 | CC(C)(O)Cc1ccc(-c2c(-c3ccc(C#N)c(F)c3)nc(N3CCC(N)CC3)n3ccnc23)c(F)c1 [Example 132, 4-(5-(4-aminopiperidin-1-yl)-8-(2-fluoro-4-(2-hydroxy-2-methylpropyl)phenyl)imidazolo[1,2-c]pyrimidin-7-yl)-2-fluorobenzonitrile hydrochloride] | > 30000 | 
15 | 21.7 | 2.82 | Cc1ccc(-c2nc(CN[C@@H]3C[C@H]3c3ccc(F)cc3)cc(C(=O)NC3CCOCC3)n2)cc1O [Example 236] | 5400 | Papp A→B at 120 min (Caco-2 permeability test): 1.44 ×10⁻⁶ cm/s; Papp B→A at 120 min (Caco-2 permeability test): 3.99 ×10⁻⁶ cm/s; efflux ratio at 120 min (Caco-2 permeability test): 2.76
16 | 17.9 ± 3.2 | 0.73 | CS(=O)(=O)N1CCN(C(=O)c2cc(CN[C@@H]3C[C@H]3c3ccc(F)cc3)nc(-c3ccc(-n4cccn4)cc3)n2)CC1 [Example 2, (2-(4-(1H-pyrazol-1-yl)phenyl)-6-((((1R,2S)-2-(4-fluorophenyl)cyclopropyl)amino)methyl)pyrimidin-4-yl)(4-(methylsulfonyl)piperazin-1-yl)methanone] | 2580 | Papp A→B at 120 min (Caco-2 permeability test): 15 ×10⁻⁶ cm/s; Papp B→A at 120 min (Caco-2 permeability test): 15 ×10⁻⁶ cm/s; efflux ratio at 120 min (Caco-2 permeability test): 1
17 | 9.6 ± 2.7 | 8.19 | COc1ccc(-c2c(-c3ccc(C#N)c(F)c3)nc(N3CCC(N)CC3)n3ccnc23)cc1C#N [Example 135, 4-(5-(4-aminopiperidin-1-yl)-8-(3-cyano-4-methoxyphenyl)imidazolo[1,2-c]pyrimidin-7-yl)-2-fluorobenzonitrile] | 23400 | 
18 | 0.46 ± 0.11 | 1 | COc1ccc(-c2c(OC)cc(N3CCC(N)CC3)nc2-c2ccc(C#N)c(F)c2)cc1O [Example 89, 4-(6-(4-aminopiperidin-1-yl)-3-(3-hydroxy-4-methoxyphenyl)-4-methoxypyridin-2-yl)-2-fluorobenzonitrile] | 13800 | Cl (Rat PK test (IV and PO); Male SD rats): 58.3 mL/min/kg; F (Rat PK test (IV and PO); Male SD rats, PO vs IV): 13.1%; AUC(0-inf) (Rat PK test (IV and PO); male, SD, rat, plasma): 208 ng·h/mL; Cmax (Rat PK test (IV and PO); male, SD, rat, plasma): 22.5 ng/mL; half-life (Rat PK test (IV and PO); male, SD, rat, plasma): 6.26 h; Vd (Rat PK test (IV and PO); male, SD, rat, plasma, intravenous): 13 L/kg
19 | 2.9 ± 0.28 | 13 | COc1ccc(-c2c(O)cc(N3CCC(N)CC3)nc2-c2ccc(C#N)c(F)c2)cc1F [Example 11, 4-(6-(4-aminopiperidin-1-yl)-3-(3-fluoro-4-methoxyphenyl)-4-hydroxypyridin-2-yl)-2-fluoroben zonitrile formate] | > 30000 | Papp A→B at 120 min (Caco-2 permeability test): 3.66 ×10⁻⁶ cm/s; Papp B→A at 120 min (Caco-2 permeability test): 27.2 ×10⁻⁶ cm/s; efflux ratio at 120 min (Caco-2 permeability test): 7.42
20 | 8.2 ± 0.1 | 8.78 | COc1cc(N2CCC(N)CC2)nc(-c2ccc(C#N)c(F)c2)c1-c1cc(O)c(F)c(F)c1 [Example 92, 4-(6-(4-aminopiperidin-1-yl)-3-(3,4-difluoro-5-hydroxyphenyl)-4-methoxypyridin-2-yl)-2-fluorobenzonitrile] | 10900 | 
21 | 0.06 ± 0.02 | 0.176 | Cc1ccc(-c2c(-c3ccc(C#N)c(F)c3)nc(N3CCC(N)CC3)n3ccnc23)cc1O [Example 136, 4-(5-(4-aminopiperidin-1-yl)-8-(3-hydroxy-4-methylphenyl)imidazolo[1,2-c]pyrimidin-7-yl)-2-fluorobenzonitrile hydrochloride] | > 30000 | 
22 | 47.9 | 3.92 | O=C(c1cc(CN[C@@H]2C[C@H]2c2ccc(F)cc2)nc(-c2ccc(-n3cccn3)cc2)n1)N1CCC(F)(F)CC1 [Example 230] | 4990 | 
23 | 7 ± 2.1 | 33.2 | COc1ccc(-c2c(O)cc(N3CCC(C)(N)CC3)nc2-c2ccc(C#N)c(F)c2)cc1F [Example 50] | 17600 | 
24 | 2.3 ± 0.04 | 5.45 | COc1ccc(-c2c(OC3CCCC3)cc(N3CCC(N)CC3)nc2-c2ccc(C#N)c(F)c2)cc1O [Example 105, 4-(6-(4-aminopiperidin-1-yl)-4-(cyclopentyloxy)-3-(3-hydroxy-4-methoxyphenyl)pyridin-2-yl)-2-fluorobenzonitrile] | 5600 | 
25 |  |  | Cc1ccc(-c2c(-c3ccc(C#N)cc3)cc3c(N4CCC[C@@H](N)C4)cccn23)cc1 [Example 10, (R)-4-(8-(3-aminopiperidin-1-yl)-3-(p-tolyl)indolizin-2-yl)benzonitrile hydrochloride] |  | IC50 (LSD1): 79.1 ± 18.9 nM; IC50 (NCI-H1417 cells; NCI-H1417, 168 h, read-out: NCI-H1417 proliferation inhibition IC50(nM)): 371 nM
26 | 61.4 | 228 | COCCNC1CCN(c2cc(O)c(-c3ccc(OC)c(F)c3)c(-c3ccc(C#N)c(F)c3)n2)CC1 [Example 49, 2-fluoro-4-(3-(3-fluoro-4-methoxyphenyl)-4-hydroxy-6-(4-((2-methoxyethyl)amino)piperidin-1-yl)pyridin-2-yl)benzonitrile] |  | 

Row | Structure (SMILES) | IC50 (LSD1; HTRF, H3K4me1 substrate) [nM] | IC50 (NCI-H1417 cells; [3]) [nM] | IC50 [1, 2] [nM] | further results
27 | COc1ccc(-c2c(-c3ccc(C#N)c(F)c3)nc(N3CCC(N)CC3)n3ccnc23)cc1F [Example 117, 4-(5-(4-aminopiperidin-1-yl)-8-(3-fluoro-4-methoxyphenyl)imidazolo[1,2-c]pyrimidin-7-yl]-2-fl uorobenzonitrile hydrochloride] |  | 3.76 | 7190 | IC50 (LSD1): 0.46 ± 0.02 nM
